{"source": "patent US20120107903A1", "about": "(priority 2010, published 2012)", "target": "Ralstonia pickettii 12D FAD dependent oxidoreductase (SEQ ID NO:9), variant QYY, S327Q/S366Y/A473Y (Ralstonia pickettii, UniProt A0ABM9ITV6, A473Y/S327Q/S366Y)", "assay_type": "biochemical", "conditions": "read-out: Km (Mal)", "data": [{"smiles": "OC[C@H]1O[C@H](O[C@H]2[C@H](O)[C@@H](O)C(O)O[C@@H]2CO)[C@H](O)[C@@H](O)[C@@H]1O", "note": "(stereo partly shown) [Mal, maltose]", "values": [{"measurement": "Km", "value": "> 100", "unit": "mM"}]}]}
